Test results reported in US10905661B2, “Disulfiram and metal salt staggered oral dosing regimen and staggered-release oral unit dosage forms” (Cantex Pharmaceuticals, Inc., priority 2016, dated 2021).

Assays:
[1] = Stability of disulfiram with zinc gluconate or copper gluconate after 4 weeks at 40° C.; format: physicochemical; conditions: 4 weeks @ 40° C./75% RH; Actual Conc. 0.040 mg/mL
Method: Stability of disulfiram and zinc gluconate was tested after 4 weeks at 40° C. in 0.1 N HCl. (Table 24).

[2] = Compatibility of disulfiram and zinc gluconate in 0.1N HCl (color, precipitate); format: physicochemical
Method: Compatibility of disulfiram and zinc gluconate for simultaneous oral administration was assessed. […] and 40 mg of disulfiram were mixed in 50 mL volumetric flasks, and 0.1N HCl was added to the flasks. […] A control was run in parallel: 0.1N HCl solution containing 50 mg of zinc gluconate alone.

Row | Compound | Conc. (disulfiram found) [1] [ng/mL] | color change ([2]; 25° C./ambient humidity for 2 days) | precipitate / clarity of solution ([2]; T0 and T=2 days, 25° C.)
1 | CCN(CC)C(=S)SSC(=S)N(CC)CC [DSF, bis(diethylthiocarbamoyl) disulfide] | 40000 |  | 
2 | zinc gluconate [zinc gluconate alone] |  | no color change | remained clear
